Measured values from ChEMBL document CHEMBL5537208 (J Med Chem, 2024).
In brackets after ≈: the same amount, converted by molar mass.

Tests used:
[1] = Apparent permeability across apical to basal side in MDCKI-MDR1 cells; assay type: ADME, cell-based, Canis lupus familiaris; conditions: dog, MDCK-MDR1
[2] = Apparent permeability across basal to apical side in MDCKI-MDR1 cells; assay type: ADME, cell-based, Canis lupus familiaris; conditions: dog, MDCK-MDR1
[3] = Unbound drug concentration in Wistar rat plasma at 1 mg/kg, po measured after 1 hr by LC-tandem MS analysis; assay type: ADME, organism-based; conditions: in vivo
[4] = Unbound drug concentration in Wistar rat brain at 1 mg/kg, po measured after 1 hr by LC-tandem MS analysis; assay type: ADME, organism-based; conditions: in vivo
[5] = Drug concentration in cerebrospinal fluid of Wistar rat at 1 mg/kg, po measured after 1 hr by LC-tandem MS analysis; assay type: ADME, organism-based; conditions: read-out: Ct
[6] = Ratio of unbound drug concentration in Wistar rat brain to plasma at 1 mg/kg, po measured after 1 hr by LC-tandem MS analysis; assay type: ADME, organism-based; conditions: read-out: K(p,uu,brain)
[7] = Solubility of compound in FeSSIF; assay type: ADME
[8] = molecular target: T1, Orexin/Hypocretin receptor type 1 (Homo sapiens, UniProt O43613)
T1 sequence (O43613 whole entry): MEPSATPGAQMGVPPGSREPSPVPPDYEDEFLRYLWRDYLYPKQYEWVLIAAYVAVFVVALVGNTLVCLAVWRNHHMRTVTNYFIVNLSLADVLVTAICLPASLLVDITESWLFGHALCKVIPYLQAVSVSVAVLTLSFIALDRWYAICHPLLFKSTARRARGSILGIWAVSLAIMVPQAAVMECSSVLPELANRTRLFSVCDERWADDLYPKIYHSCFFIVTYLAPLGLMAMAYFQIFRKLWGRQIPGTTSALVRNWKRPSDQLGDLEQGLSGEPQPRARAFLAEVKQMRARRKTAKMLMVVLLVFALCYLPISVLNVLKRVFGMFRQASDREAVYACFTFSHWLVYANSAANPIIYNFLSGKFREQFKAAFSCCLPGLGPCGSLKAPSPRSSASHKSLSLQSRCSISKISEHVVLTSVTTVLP
Description: Antagonist activity at human OX1R expressed in CHO cells preincubated for 120 mins followed by orexin-A addition by FLIPR assay

Orexin receptor type 2 = molecular target: T2, Orexin receptor type 2 (Homo sapiens, UniProt O43614)
T2 sequence (O43614 whole entry): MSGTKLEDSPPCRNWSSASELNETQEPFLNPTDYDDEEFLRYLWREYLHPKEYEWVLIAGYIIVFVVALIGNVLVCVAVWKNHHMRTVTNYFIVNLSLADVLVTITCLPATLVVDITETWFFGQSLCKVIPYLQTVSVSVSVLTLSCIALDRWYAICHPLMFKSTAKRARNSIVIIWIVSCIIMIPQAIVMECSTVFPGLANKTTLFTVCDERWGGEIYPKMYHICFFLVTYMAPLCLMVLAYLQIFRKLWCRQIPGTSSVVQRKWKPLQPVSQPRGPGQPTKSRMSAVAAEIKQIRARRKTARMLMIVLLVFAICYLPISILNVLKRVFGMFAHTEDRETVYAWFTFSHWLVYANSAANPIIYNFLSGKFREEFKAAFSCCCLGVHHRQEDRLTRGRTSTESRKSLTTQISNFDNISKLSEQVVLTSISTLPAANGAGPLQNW
Description: Antagonist activity at human OX2R expressed in CHO cells preincubated for 120 mins followed by orexin-A addition by FLIPR assay

[9] = molecular target: T3, Orexin/Hypocretin receptor type 1 (Rattus norvegicus) (UniProt P56718); conditions: Wistar, dose 1.0 mg/kg, route po, time 1.0 hrs
T3 sequence (whole entry): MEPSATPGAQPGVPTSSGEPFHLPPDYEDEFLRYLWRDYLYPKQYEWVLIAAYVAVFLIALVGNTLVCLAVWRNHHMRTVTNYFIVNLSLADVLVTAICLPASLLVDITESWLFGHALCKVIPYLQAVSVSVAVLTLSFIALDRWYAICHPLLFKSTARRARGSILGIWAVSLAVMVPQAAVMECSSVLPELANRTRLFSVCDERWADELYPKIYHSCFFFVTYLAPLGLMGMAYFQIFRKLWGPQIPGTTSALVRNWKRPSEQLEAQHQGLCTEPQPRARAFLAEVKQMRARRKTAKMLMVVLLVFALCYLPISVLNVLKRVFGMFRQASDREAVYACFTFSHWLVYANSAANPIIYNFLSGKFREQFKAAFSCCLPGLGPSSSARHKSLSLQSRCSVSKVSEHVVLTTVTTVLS

in vitro [10] = conditions: human, liver microsomes
in vitro [11] = conditions: rat, liver microsomes
Cytochrome P450 3A4 = Cytochrome P450 3A4 (Homo sapiens, UniProt P08684); experiment: Inhibition of CYP3A4 (unknown origin) using testosterone as substrate; assay type: ADME
Sequence of Cytochrome P450 3A4 (P08684 whole entry): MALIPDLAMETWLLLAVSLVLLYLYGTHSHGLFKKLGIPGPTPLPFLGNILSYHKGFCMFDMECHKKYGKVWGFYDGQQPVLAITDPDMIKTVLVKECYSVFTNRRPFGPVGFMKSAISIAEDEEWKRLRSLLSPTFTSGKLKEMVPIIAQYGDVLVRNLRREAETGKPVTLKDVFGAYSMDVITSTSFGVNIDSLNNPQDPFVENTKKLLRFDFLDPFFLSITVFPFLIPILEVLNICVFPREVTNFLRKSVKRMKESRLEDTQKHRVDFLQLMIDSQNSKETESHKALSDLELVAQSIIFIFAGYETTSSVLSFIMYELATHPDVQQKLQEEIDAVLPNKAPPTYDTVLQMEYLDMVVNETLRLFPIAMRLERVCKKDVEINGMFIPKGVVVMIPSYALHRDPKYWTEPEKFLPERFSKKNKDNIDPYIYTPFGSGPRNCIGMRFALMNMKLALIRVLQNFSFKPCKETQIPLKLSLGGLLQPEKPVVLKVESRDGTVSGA

in vitro [12] = conditions: dog, MDCK-MDR1
Description: Efflux ratio in MDCKI-MDR1 cells

[13] = Drug concentration in Wistar rat Cerebrospinal fluid at 30 mg/kg, po measured after 1 hr by LC-tandem MS analysis; assay type: ADME, organism-based; conditions: read-out: Ct
[14] = Unbound drug concentration in Wistar rat brain at 30 mg/kg, po measured after 1 hr by LC-tandem MS analysis; assay type: ADME, organism-based; conditions: in vivo
[15] = In vivo receptor occupancy at OX2R in Wistar rat brain at 30 mg/kg, po measured after 1 hr relative to control; assay type: functional
[16] = Drug concentration in Wistar rat Cerebrospinal fluid at 100 mg/kg, po measured after 1 hr by LC-tandem MS analysis; assay type: ADME, organism-based; conditions: read-out: Ct
[17] = Unbound drug concentration in Wistar rat brain at 100 mg/kg, po measured after 1 hr by LC-tandem MS analysis; assay type: ADME, organism-based; conditions: in vivo
[18] = In vivo receptor occupancy at OX2R in Wistar rat brain at 100 mg/kg, po measured after 1 hr relative to control; assay type: functional

SMILES	IC50 [8] [nM]	IC50 (Orexin receptor type 2) [nM]	microsomal CLint at 1 µM (in vitro [10]) [µL/min/mg]	other results
Cc1ccc(C(=O)N2CCO[C@@H](C)[C@H]2Cc2cccc(-n3nccn3)c2)c(-n2nccn2)c1			327	
Cc1ccc(C(=O)N2CCO[C@H](C)[C@H]2Cc2cccc(-n3nccn3)c2)c(-n2nccn2)c1			301	
O=C(c1ccccc1-c1ncccn1)N1CCC[C@H]1Cc1cccc(-n2nccn2)c1	4.4			
Cc1nc(C(=O)N2CCC[C@H]2Cc2cccc(-n3nccn3)c2)c(-c2ccc(F)cc2)s1	17	100		
Cc1ccc(C(=O)N2CCOC[C@H]2Cc2cc(-n3nccn3)ccc2C)c(-n2nccn2)c1	4.1	1110	208	
Cc1ccc(C(=O)N2CCOC[C@H]2Cc2cc(-n3nccn3)ccc2Cl)c(-n2nccn2)c1	3.1	595	158	
Cc1ccc(-n2nccn2)c(C(=O)N2CCNC[C@H]2Cc2cccc(-n3nccn3)c2)c1		666		IC50 (Cytochrome P450 3A4): 25000 nM
Cc1ccc(C(=O)N2[C@H](Cc3cccc(-n4nccn4)c3)COC[C@@H]2C)c(-n2nccn2)c1	34	1830	239	
O=C(c1ccccc1-n1nccn1)N1CCC[C@H]1Cc1cccc(-n2nccn2)c1	5.9			
Cc1ccc(C(=O)N2[C@H](Cc3cccc(-n4nccn4)c3)COC[C@H]2C)c(-n2nccn2)c1	1		623	
Cc1cccc(-c2sc(C)nc2C(=O)N2CCC[C@H]2Cc2cccc(-c3ncon3)c2)c1		4.4		
Cc1cccc(-c2sc(C)nc2C(=O)N2CCC[C@H]2Cc2cccc(-n3cccn3)c2)c1		20		
Cc1ccc(-n2nccn2)c(C(=O)N2CCCC[C@H]2Cc2cccc(-n3nccn3)c2)c1		1.7	634	microsomal CLint at 1 µM (in vitro [11]): > 1250 µL/min/mg
Cc1cccc(-c2ncncc2C(=O)N2CCC[C@H]2Cc2cccc(-n3nccn3)c2)c1	9.5			
Cc1nc(C(=O)N2CCC[C@H]2Cc2cccc(-n3nccn3)c2)c(-c2ccc3c(c2)OCO3)s1	3.6	12		

More lines, main results first:

IC50 [8] [nM]	IC50 (Orexin receptor type 2) [nM]	microsomal CLint at 1 µM (in vitro [10]) [µL/min/mg]	SMILES	other results
1.7	214	119	Cc1ccc(-n2nccn2)c(C(=O)N2CCOC[C@H]2Cc2cccc(-n3nccn3)c2)c1	Papp A→B [1]: 15.3 ×10⁻⁶ cm/s; Papp B→A [2]: 55.9 ×10⁻⁶ cm/s; Cp(f) [3]: 36 nM; Drug uptake(free) [4]: 19 nM; concentration at 1 h [5]: 51 nM; Kp uu at 1 h [6]: 0.53; solubility [7]: 46 µg/mL (≈ 107 µM); Occ [9]: > 91%; microsomal CLint at 1 µM (in vitro [11]): > 1250 µL/min/mg
	1550		O=C(c1c(F)cccc1-n1nccn1)N1CCOC[C@H]1Cc1cccc(-n2nccn2)c1	
		59	O=C(c1ccccc1-n1nccn1)N1CCOC[C@H]1Cc1cccc(-n2nccn2)c1	
109			Cc1cccc(-n2nccn2)c1C(=O)N1CCOC[C@H]1Cc1cccc(-n2nccn2)c1	
1.9		89	Cc1ccc(C(=O)N2CCOC[C@H]2Cc2cc(Cl)cc(-n3nccn3)c2)c(-n2nccn2)c1	
3	784	121	COc1ccc(-n2nccn2)c(C(=O)N2CCOC[C@H]2Cc2cccc(-n3nccn3)c2)c1	Papp A→B [1]: 6.1 ×10⁻⁶ cm/s; Papp B→A [2]: 60.6 ×10⁻⁶ cm/s; microsomal CLint at 1 µM (in vitro [11]): > 1250 µL/min/mg; efflux ratio (in vitro [12]): 10
37	1040	101	O=C(c1ccc(F)cc1-n1nccn1)N1CCOC[C@H]1Cc1cccc(-n2nccn2)c1	
21	2020	170	Cc1ccc(C(=O)N2CCOC[C@H]2Cc2cccc(-n3nccn3)c2F)c(-n2nccn2)c1	
		99	Cc1ccc(C(=O)N2CCOC[C@H]2Cc2cc(-n3nccn3)ccc2F)c(-n2nccn2)c1	Cp(f) [3]: 177 nM; Drug uptake(free) [4]: 307 nM; concentration at 1 h [5]: 550 nM; Kp uu at 1 h [6]: 1.73; concentration at 1 h [13]: 45 nM; Drug uptake(free) [14]: 10 nM; Occ [15]: 13%; concentration at 1 h [16]: 550 nM; Drug uptake(free) [17]: 307 nM; Occ [18]: 82%
3.5		164	Cc1ccc(C(=O)N2CCOC[C@H]2Cc2cc(F)cc(-n3nccn3)c2)c(-n2nccn2)c1	
1.4	184	391	Cc1ccc(C(=O)N2CCOC[C@H]2Cc2ccc(C)c(-n3nccn3)c2)c(-n2nccn2)c1	
		227	O=C(c1cc(F)ccc1-n1nccn1)N1CCOC[C@H]1Cc1cccc(-n2nccn2)c1	
6.2	1430	157	COc1ccc(C(=O)N2CCOC[C@H]2Cc2cccc(-n3nccn3)c2)c(-n2nccn2)c1	Papp A→B [1]: 8.7 ×10⁻⁶ cm/s; Papp B→A [2]: 62.4 ×10⁻⁶ cm/s; microsomal CLint at 1 µM (in vitro [11]): > 1250 µL/min/mg; efflux ratio (in vitro [12]): 7.2
2.8	2430	292	Cc1ccc(C(=O)N2CCOC[C@H]2Cc2cccc(-n3nccn3)c2)c(-n2nccn2)c1C	Papp A→B [1]: 11.8 ×10⁻⁶ cm/s; Papp B→A [2]: 59.4 ×10⁻⁶ cm/s; Cp(f) [3]: 72 nM; Drug uptake(free) [4]: 147 nM; concentration at 1 h [5]: 370 nM; Kp uu at 1 h [6]: 2.04; solubility [7]: 293 µg/mL (≈ 661 µM); Occ [9]: > 98%; microsomal CLint at 1 µM (in vitro [11]): > 1250 µL/min/mg; efflux ratio (in vitro [12]): 5
		104	O=C(c1cccc(F)c1-n1nccn1)N1CCOC[C@H]1Cc1cccc(-n2nccn2)c1	
5.5		204	Cc1cccc(C(=O)N2CCOC[C@H]2Cc2cccc(-n3nccn3)c2)c1-n1nccn1	Papp A→B [1]: 16.1 ×10⁻⁶ cm/s; Papp B→A [2]: 66 ×10⁻⁶ cm/s; Cp(f) [3]: 278 nM; Drug uptake(free) [4]: 260 nM; concentration at 1 h [5]: 1000 nM; Kp uu at 1 h [6]: 0.94; solubility [7]: 337 µg/mL (≈ 785 µM); microsomal CLint at 1 µM (in vitro [11]): > 1250 µL/min/mg
0.7	7	> 1250	Cc1ccc(-n2nccn2)c(C(=O)N2CCC[C@H]2Cc2cccc(-n3nccn3)c2)c1	microsomal CLint at 1 µM (in vitro [11]): > 1250 µL/min/mg
4	215	139	Cc1ccc(C(=O)N2C[C@@H](C)OC[C@H]2Cc2cccc(-n3nccn3)c2)c(-n2nccn2)c1	
11	265	322	Cc1ccc(C(=O)N2C[C@H](C)OC[C@H]2Cc2cccc(-n3nccn3)c2)c(-n2nccn2)c1	
